The test deals with MCL-1 (Homo sapiens, UniProt Q07820). The experiment in a line: FP. It counts as binding. The note with it: for Ki: FP MCL-1 Ki; for inhibition at 50 µM: read-out: FP MCL-1 inhibition at 50 μM, @50 μM, highest tested dose.

The structures appear in SMILES notation.

Data on 19 molecules can be found in PMC8412899 (ACS Omega, 2021).

Sequence of MCL-1 (Q07820 whole entry): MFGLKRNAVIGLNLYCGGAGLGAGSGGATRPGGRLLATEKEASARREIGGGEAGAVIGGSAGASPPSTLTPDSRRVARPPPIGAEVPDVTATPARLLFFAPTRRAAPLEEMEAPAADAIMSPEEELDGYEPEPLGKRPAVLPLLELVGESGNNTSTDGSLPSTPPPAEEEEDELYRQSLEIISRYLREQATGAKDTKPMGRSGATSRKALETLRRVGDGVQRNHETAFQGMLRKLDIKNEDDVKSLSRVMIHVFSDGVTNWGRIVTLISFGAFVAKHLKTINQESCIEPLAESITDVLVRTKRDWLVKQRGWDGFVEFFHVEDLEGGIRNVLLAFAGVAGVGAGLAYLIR

As for `CC#CCn1c(CC)c(-c2cccc(Cl)c2C)c2c(N[C@H](Cc3ccccc3)C(=O)O)ncnc21` (single isomer, unassigned) [Compound 7b, N-[7-(But-2-yn-1-yl)-(5Sa)-5-(3-chloro-2-methylphenyl)-6-ethyl-7H-pyrrolo[2,3-d]pyrimidin-4-yl]-D-phenylalanine], the Ki (as a rule, the equilibrium dissociation constant of an inhibitor or competing ligand from its target) came to 0.33 µM.

In turn, `C=CCn1c(Br)c(-c2cccc(Cl)c2C)c2c(N[C@H](Cc3ccccc3)C(=O)O)ncnc21` (single isomer, unassigned) [Compound 4a, N-[6-Bromo-(5Sa)-5-(3-chloro-2-methylphenyl)-7-(prop-2-en-1-yl)-7H-pyrrolo[2,3-d]pyrimidin-4-yl]-D-phenylalanine] came in with a Ki of 2.5 µM. In the case of `CCc1c(-c2cccc(Cl)c2C)c2c(N[C@H](Cc3ccccc3)C(=O)O)ncnc2n1CCC1CCCC1` (single isomer, unassigned) [Compound 9a, N-[(5Ra)-5-(3-Chloro-2-methylphenyl)-7-(2-cyclopentylethyl)-6-ethyl-7H-pyrrolo[2,3-d]pyrimidin-4-yl]-D-phenylalanine], the Ki worked out at 3.5 µM. The same measure, in the same setting: with `Cc1c(Cl)cccc1-c1c2n(c3ncnc(N[C@H](Cc4ccccc4)C(=O)O)c13)CCCC2` (single isomer, unassigned) [Compound 12a, N-[(5Ra)-5-(3-Chloro-2-methylphenyl)-6,7,8,9-tetrahydropyrimido[5,4-b]indolizin-4-yl]-D-phenylalanine] the figure was 11 µM. Regarding `CCc1c(-c2cccc(Cl)c2C)c2c(N[C@H](Cc3ccccc3)C(=O)O)ncnc2n1C(C)C` [Compound 6b, N-[(5Sa)-5-(3-Chloro-2-methylphenyl)-6-ethyl-7-(propan-2-yl)-7H-pyrrolo[2,3-d]pyrimidin-4-yl]-D-phenylalanine], the “FP MCL-1 inhibition at 50 μM” value (@50 μM, highest tested dose) was determined as 78%@50 μM.

As to `CCc1c(-c2cccc(Cl)c2C)c2c(N[C@H](Cc3ccccc3)C(=O)O)ncnc2n1CCC1CCCC1` (single isomer, unassigned) [Compound 9b, N-[(5Sa)-5-(3-Chloro-2-methylphenyl)-7-(2-cyclopentylethyl)-6-ethyl-7H-pyrrolo[2,3-d]pyrimidin-4-yl]-D-phenylalanine], the “FP MCL-1 Ki” value is on record as “submicromolar” and the affinity corresponds to a Ki of 0.79 µM. In turn, `CCc1c(-c2cccc(Cl)c2C)c2c(N[C@H](Cc3ccccc3)C(=O)O)ncnc2n1Cc1cccc2ccccc12` (single isomer, unassigned) [Compound 10b, N-[(5Sa)-5-(3-Chloro-2-methylphenyl)-6-ethyl-7-(naphthalen-1-ylmethyl)-7H-pyrrolo[2,3-d]pyrimidin-4-yl]-D-phenylalanine] displayed an inhibition constant Ki of 0.26 µM. Consider `CCc1c(-c2cccc(Cl)c2C)c2c(N[C@H](Cc3ccccc3)C(=O)O)ncnc2n1CC(F)(F)F` (single isomer, unassigned) [Compound 5a, N-[(5Ra)-5-(3-Chloro-2-methylphenyl)-6-ethyl-7-(2,2,2-trifluoroethyl)-7H-pyrrolo[2,3-d]pyrimidin-4-yl]-D-phenylalanine], for which the inhibition (in general, the drop in the measured response relative to a control, in per cent) at 50 µM came out at 63%. Take `Cc1c(Cl)cccc1-c1c2n(c3ncnc(N[C@H](Cc4ccccc4)C(=O)O)c13)CCCC2` (single isomer, unassigned) [Compound 12b, N-[(5Sa)-5-(3-Chloro-2-methylphenyl)-6,7,8,9-tetrahydropyrimido[5,4-b]indolizin-4-yl]-D-phenylalanine]: the inhibitory constant (Ki) turned out to be 5.9 µM.

`CCc1c(-c2cccc(Cl)c2C)c2c(N[C@H](Cc3ccccc3)C(=O)O)ncnc2n1C` (single isomer, unassigned) [Compound 2a, N-[(5Ra)-5-(3-Chloro-2-methylphenyl)-6-ethyl-7-methyl-7H-pyrrolo[2,3-d]pyrimidin-4-yl]-D-phenylalanine]: the inhibition at 50 µM stood at 65%. In turn, `COc1ccccc1C[C@@H](Oc1ncnc2sc(-c3ccc(F)cc3)c(-c3ccc(OCCN4CCN(C)CC4)c(Cl)c3C)c12)C(=O)O` [Compound 13, (2R)-2-{[(5Sa)-5-{3-Chloro-2-methyl-4-[2-(4-methylpiperazin-1-yl)ethoxy]phenyl}-6-(4-fluorophenyl)thieno[2,3-d]pyrimidin-4-yl]oxy}-3-(2-methoxyphenyl)propanoic Acid] gave a Ki of 0.014 µM.

Molecule `CCc1c(-c2cccc(Cl)c2C)c2c(N[C@H](Cc3ccccc3)C(=O)O)ncnc2n1Cc1ccccc1` (single isomer, unassigned) [Compound 8b, N-[7-Benzyl-(5Sa)-5-(3-chloro-2-methylphenyl)-6-ethyl-7H-pyrrolo[2,3-d]pyrimidin-4-yl]-D-phenylalanine] displayed a Ki of 0.53 µM. For the molecule `CCc1c(-c2cccc(Cl)c2C)c2c(N[C@H](Cc3ccccc3)C(=O)O)ncnc2n1C(C)C` [Compound 6a, N-[(5Ra)-5-(3-Chloro-2-methylphenyl)-6-ethyl-7-(propan-2-yl)-7H-pyrrolo[2,3-d]pyrimidin-4-yl]-D-phenylalanine], the inhibition at 50 µM was found to be 67%. Molecule `C=CCn1c(CC)c(-c2cccc(Cl)c2C)c2c(N[C@H](Cc3ccccc3)C(=O)O)ncnc21` (single isomer, unassigned) [Compound 3b, N-[(5Sa)-5-(3-Chloro-2-methylphenyl)-6-ethyl-7-(prop-2-en-1-yl)-7H-pyrrolo[2,3-d]pyrimidin-4-yl]-D-phenylalanine] had a Ki of 9.1 µM. As to `C=CCn1c(Br)c(-c2cccc(Cl)c2C)c2c(N[C@H](Cc3ccccc3)C(=O)O)ncnc21` (single isomer, unassigned) [Compound 4b, N-[6-Bromo-(5Ra)-5-(3-chloro-2-methylphenyl)-7-(prop-2-en-1-yl)-7H-pyrrolo[2,3-d]pyrimidin-4-yl]-D-phenylalanine], the inhibition at 50 µM came to 66%. The molecule `CCc1c(-c2cccc(Cl)c2C)c2c(N[C@H](Cc3ccccc3)C(=O)O)ncnc2n1Cc1cccc2ccccc12` (single isomer, unassigned) [Compound 10a, N-[(5Ra)-5-(3-Chloro-2-methylphenyl)-6-ethyl-7-(naphthalen-1-ylmethyl)-7H-pyrrolo[2,3-d]pyrimidin-4-yl]-D-Phenylalanine] registered an inhibition constant Ki of 3.5 µM.

As to `C=CCn1c(CC)c(-c2cccc(Cl)c2C)c2c(N[C@H](Cc3ccccc3)C(=O)O)ncnc21` (single isomer, unassigned) [Compound 3a, N-[(5Ra)-5-(3-Chloro-2-methylphenyl)-6-ethyl-7-(prop-2-en-1-yl)-7H-pyrrolo[2,3-d]pyrimidin-4-yl]-D-phenylalanine], the Ki worked out at 18 µM. Moreover, the “fold less potent (FP affinity)” value (less active form compared to more active isomer 3b) amounted to 2 fold. Molecule `CCc1c(-c2cccc(Cl)c2C)c2c(N[C@H](Cc3ccccc3)C(=O)O)ncnc2n1CC(F)(F)F` (single isomer, unassigned) [Compound 5b, N-[(5Sa)-5-(3-Chloro-2-methylphenyl)-6-ethyl-7-(2,2,2-trifluoroethyl)-7H-pyrrolo[2,3-d]pyrimidin-4-yl]-D-phenylalanine] returned a Ki of 8.5 µM. This counts as single-digit micromolar. In the case of `CCc1c(-c2cccc(Cl)c2C)c2c(N[C@H](Cc3ccccc3)C(=O)O)ncnc2n1Cc1ccccc1` (single isomer, unassigned) [Compound 8a, N-[7-Benzyl-(5Ra)-5-(3-chloro-2-methylphenyl)-6-ethyl-7H-pyrrolo[2,3-d]pyrimidin-4-yl]-D-phenylalanine], the Ki worked out at 6.5 µM.
